Reference: patent US9062061B2, “Compound having PARP inhibitory activity” (SANTEN PHARMACEUTICAL CO., LTD., priority 2011, dated 2015)
Read-outs that look alike come from different tables or passages of the source.

Tests used:
[1] = system: rat N-methyl-N-nitrosourea (MNU)-induced retinal degeneration model; assay: Retinal degeneration inhibitory activity in rat MNU-induced model (retinal volume by OCT); assay type: in vivo; conditions: po, 168 h, test compound 10 mg/kg orally once 30 minutes before MNU, seventh day, Brown Norway male rats, read-out: Retinal volume reduction inhibition rate (%)
Protocol: For examining influence of the present compound on the retinal degeneration, retinal degeneration inhibitory activity of test compound was evaluated, using a rat N-methyl-N-nitrosourea (hereinafter, “MNU”)-induced retinal degeneration model. The rat MNU-induced retinal degeneration model is a model animal in which cell death of retinal photoreceptor cell is induced by administration of MNU which is a DNA alkylation agent, and is generally used as a model animal for chorioretinal degenerative diseases such as retinitis pigmentosa (Exp. Eye. Res., 84(2), 285-292 (2007)).
By the previous day of MNU administration, retinal volumes of 8-week-old Brown Norway male rats were measured by using optical coherence tomography (OCT) (product of Carl Zeiss, model number: STRATUS OCT Model 3000). An MNU administration liquid was intraperitoneally administered to the rats at a dose of 50 to 60 mg/kg, and on the seventh day after administration, retinal volumes were measured by using OCT. The normal control group underwent no treatment, and retinal volumes were measured on the same day as the MNU administration group. The number of examples in each group was 4 rats (8 eyes).
(Administration Method) • Test compound-administered group: A solution of each test compound suspended in 1% (w/v) methylcellulose aqueous solution was orally administered once 30 minutes before MNU administration at a dose of 1 to 30 mg/kg. • Normal control group and vehicle-administered group: 1% (w/v) methylcellulose aqueous solution was orally administered once 30 minutes before MNU administration.
According to the following Formula 2, retinal volume reduction inhibition rate (%) was calculated. Retinal volume reduction inhibition rate(%)=(RVX-pre/RVX-post−RVB-pre/RVB-post)/(RVA-pre/RVA-post−RVB-pre/RVB-post)×100 [Formula 2]
RVA-pre: retinal volume before MNU administration of normal control group (mm^3)
RVA-post: retinal volume on the seventh day after MNU administration of normal control group (mm^3)
RVB-pre: retinal volume before MNU administration of vehicle-administered group (mm^3)
RVB-post: retinal volume on the seventh day after MNU administration of vehicle-administered group (mm^3)
RVX-pre: retinal volume before MNU administration of test compound-administered group (mm^3)
RVX-post: retinal volume on the seventh day after MNU administration of test compound-administered group (mm^3)

human recombinant PARP1 = biological target: T1, human recombinant PARP1 (Homo sapiens, UniProt P09874); assay: PARP inhibitory activity measurement test (Universal Colorimetric PARP Assay kit, Trevigen); assay type: biochemical; conditions: compound concentration: 10 μM, read-out: PARP1 inhibition rate (%)
T1 construct: purchased Trevigen 4677-096-K
In short: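 Histone-coated wells with recombinant PARP1, activated DNA and biotinylated NAD, with test compound from a 50 μM solution, 1 h at room temperature. Incorporated biotin detected with Strep-HRP and colorimetric substrate at Abs 450. Inhibition (%) calculated against no-compound and no-enzyme controls, n=1–2.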

[2] = system: rat thrombin-induced retinal vascular hyperpermeability model; assay: Retinal vascular hyperpermeability inhibitory activity in rat thrombin model (intravitreal protein concentration, Bradford method); assay type: in vivo; conditions: thrombin 3 U/eye intravitreal; test compound 100 mg/kg orally 1.5 hours before and 22.5 hours after thrombin; Brown Norway male rats
Protocol: For examining the influence of the present compound on retinal vascular hyperpermeability, the retinal vascular hyperpermeability inhibitory activity of the test compound was evaluated using a rat thrombin-induced retinal vascular hyperpermeability model. The rat thrombin-induced retinal vascular hyperpermeability model is an animal in which retinal vascular permeability is increased by administration of thrombin, and is used as a model animal for diabetic retinopathy, diabetic macular edema and so on (IONS, 2000, 41(4), S18, 92).
A thrombin liquid preparation was intravitreally administered to 8-week old Brown Norway male rat at a dose of 3 U/eye, and the vitreous body was collected on the next day of administration, and intravitreal protein concentration was measured by the Bradford method. A normal control group received intravitreal administration of DPBS. The number of examples in each group was 4 rats (7-8 eyes).
(Administration Method) • Test compound-administered group: A solution of each test compound suspended in 1% (w/v) methylcellulose aqueous solution was orally administered in a dose of 100 mg/kg, 1.5 hours before and 22.5 hours after thrombin administration. • Normal control group and vehicle-administered group
According to the following Formula 3, retinal vascular hyperpermeability inhibition rate was calculated. […]

T1 sequence (P09874 whole entry): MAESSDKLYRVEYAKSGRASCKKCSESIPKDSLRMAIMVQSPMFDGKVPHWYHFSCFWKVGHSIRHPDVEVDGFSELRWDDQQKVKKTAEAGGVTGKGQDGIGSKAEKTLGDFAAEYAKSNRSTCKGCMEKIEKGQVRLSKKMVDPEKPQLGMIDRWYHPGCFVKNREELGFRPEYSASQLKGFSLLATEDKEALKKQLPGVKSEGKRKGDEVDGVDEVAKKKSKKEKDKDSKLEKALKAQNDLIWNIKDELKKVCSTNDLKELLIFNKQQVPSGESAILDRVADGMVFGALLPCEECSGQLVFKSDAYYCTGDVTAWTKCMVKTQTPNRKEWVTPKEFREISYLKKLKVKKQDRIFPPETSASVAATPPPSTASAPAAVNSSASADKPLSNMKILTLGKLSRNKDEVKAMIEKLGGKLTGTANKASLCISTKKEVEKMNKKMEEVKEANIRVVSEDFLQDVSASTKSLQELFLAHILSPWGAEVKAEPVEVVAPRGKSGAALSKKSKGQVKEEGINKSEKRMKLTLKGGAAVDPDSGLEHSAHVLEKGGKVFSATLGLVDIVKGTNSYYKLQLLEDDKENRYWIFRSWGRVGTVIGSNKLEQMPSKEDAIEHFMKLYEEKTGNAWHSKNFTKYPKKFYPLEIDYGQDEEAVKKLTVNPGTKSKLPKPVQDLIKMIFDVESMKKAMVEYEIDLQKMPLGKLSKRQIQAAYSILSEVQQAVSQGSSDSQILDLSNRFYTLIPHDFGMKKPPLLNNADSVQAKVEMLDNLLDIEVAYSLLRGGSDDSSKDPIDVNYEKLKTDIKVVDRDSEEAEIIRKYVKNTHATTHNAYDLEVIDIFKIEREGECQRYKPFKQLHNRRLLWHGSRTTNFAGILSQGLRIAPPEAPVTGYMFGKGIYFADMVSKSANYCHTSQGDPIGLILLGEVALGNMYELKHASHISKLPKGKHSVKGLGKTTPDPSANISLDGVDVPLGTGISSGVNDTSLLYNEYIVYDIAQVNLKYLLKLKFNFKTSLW

Structure (SMILES): O=c1[nH]c2cc(CN3CCN(c4ccc(F)cc4)CC3)cn2c2ccccc12 [Compound 2-1, 2-[4-(4-Fluorophenyl)piperazin-1-ylmethyl]pyrrolo[1,2-a]quinazolin-5 (4H)-one]
- inhibition in vivo at 10 mg/kg ([1]; MNU 60 mg/kg i.p.): 65%
- inhibition at 10 µM (human recombinant PARP1): 100%
- Retinal vascular hyperpermeability inhibition rate (%) [2]: 63%

Structure (SMILES): [2H]C([2H])(c1cc2[nH]c(=O)c3ccccc3n2c1)N1CCN(c2ccc(F)cc2)CC1 [Compound 4-1, 2-[1-[4-(4-Fluorophenyl)piperazin-1-yl]-1,1-dideuteriomethyl]pyrrolo[1,2-a]quinazolin-5(4H)-one]
- inhibition in vivo at 10 mg/kg ([1]; MNU 50 mg/kg i.p.): 94%
- inhibition at 10 µM (human recombinant PARP1): 100%
